Results as given in US10874646B2, “Epothilone analogs, methods of synthesis, methods of treatment, and drug conjugates thereof” (WILLIAM MARSH RICE UNIVERSITY, priority 2015, dated 2020).
Where two headings read alike, the source gives them in different places.

Assays:
A498 = experiment: NCI-60 human cancer cell line panel, five dose screen; type: cell-based; settings: NCI-60 five dose screen
Excerpt: (§1) Biological evaluation. The synthesized epothilone analogues were submitted to the NCI for testing against the NCI-60 human cancer cell line panel (Shoemaker, 2006).

A549/ATCC = experiment: as above; type: cell-based; settings: NCI-60 five dose screen
Excerpt: as §1

CCRF-CEM = experiment: as above; type: cell-based; settings: NCI-60 five dose screen
Excerpt: as §1

COLO 205 = experiment: as above; type: cell-based; settings: NCI-60 five dose screen
Excerpt: as §1

HCT-116 = experiment: as above; type: cell-based; settings: NCI-60 five dose screen
Excerpt: as §1

HCT-15 = experiment: as above; type: cell-based; settings: NCI-60 five dose screen
Excerpt: as §1

HL-60(TB) = experiment: as above; type: cell-based; settings: NCI-60 five dose screen
Excerpt: as §1

HOP-92 = experiment: as above; type: cell-based; settings: NCI-60 five dose screen
Excerpt: as §1

HS 578T = experiment: as above; type: cell-based; settings: NCI-60 five dose screen
Excerpt: as §1

HT29 = experiment: as above; type: cell-based; settings: HT-29, NCI-60 five dose screen
Excerpt: as §1

K-562 = experiment: as above; type: cell-based; settings: K562, NCI-60 five dose screen
Excerpt: as §1

KM12 = experiment: as above; type: cell-based; settings: NCI-60 five dose screen
Excerpt: as §1

LOX IMVI = experiment: as above; type: cell-based; settings: NCI-60 five dose screen
Excerpt: as §1

M14 = experiment: as above; type: cell-based; settings: NCI-60 five dose screen
Excerpt: as §1

MCF7 = experiment: as above; type: cell-based; settings: NCI-60 five dose screen
Excerpt: as §1

MDA-MB-435 = experiment: as above; type: cell-based; settings: NCI-60 five dose screen
Excerpt: as §1

MDA-MB-468 = experiment: as above; type: cell-based; settings: NCI-60 five dose screen
Excerpt: as §1

MOLT-4 = experiment: as above; type: cell-based; settings: NCI-60 five dose screen
Excerpt: as §1

NCI-H23 = experiment: as above; type: cell-based; settings: NCI-60 five dose screen
Excerpt: as §1

NCI-H460 = experiment: as above; type: cell-based; settings: NCI-60 five dose screen
Excerpt: as §1

OVCAR-3 = experiment: as above; type: cell-based; settings: NCI-60 five dose screen
Excerpt: as §1

PC-3 = experiment: as above; type: cell-based; settings: NCI-60 five dose screen
Excerpt: as §1

RPMI-8226 = experiment: as above; type: cell-based; settings: NCI-60 five dose screen
Excerpt: as §1

RXF 393 = experiment: as above; type: cell-based; settings: NCI-60 five dose screen
Excerpt: as §1

SF-539 = experiment: as above; type: cell-based; settings: NCI-60 five dose screen
Excerpt: as §1

SK-MEL-5 = experiment: as above; type: cell-based; settings: NCI-60 five dose screen
Excerpt: as §1

SW-620 = experiment: as above; type: cell-based; settings: NCI-60 five dose screen
Excerpt: as §1

U251 = experiment: as above; type: cell-based; settings: U-251, NCI-60 five dose screen
Excerpt: as §1

tubulin = experiment: Induction/enhancement of tubulin assembly (Lin, et al., 1996); type: biochemical; settings: 10 μM tubulin, 0.4M monosodium glutamate, 30 min at room temperature; Table 2; read-out: induction of tubulin assembly (EC50, μM ± SD)
MCF-7 = experiment: Cytotoxicity, standard NCI assay with sulforhodamine B, 96 h; settings: Homo sapiens, MCF7, 96 h, read-out: cytotoxicity (GI50, nM ± SD) MCF-7
OVCAR-8 = experiment: as above; settings: Homo sapiens, OVCAR-8, 96 h, read-out: cytotoxicity (GI50, nM ± SD) OVCAR-8
SNB-75 = experiment: NCI-60 human cancer cell line panel, five dose screen; type: cell-based; settings: NCI-60 five dose screen
Excerpt: as §1

SR = experiment: as above; type: cell-based; settings: NCI-60 five dose screen
Excerpt: as §1

SMILES	GI50 (A498) [nM]	GI50 (A549/ATCC) [nM]	GI50 (CCRF-CEM) [nM]	GI50 (COLO 205) [nM]	GI50 (HCT-116) [nM]	GI50 (HCT-15) [nM]	GI50 (HL-60(TB)) [nM]	GI50 (HS 578T) [nM]	GI50 (HT29) [nM]	GI50 (K-562) [nM]	GI50 (KM12) [nM]	GI50 (LOX IMVI) [nM]	GI50 (M14) [nM]	GI50 (MCF7) [nM]	GI50 (MDA-MB-435) [nM]	GI50 (MDA-MB-468) [nM]	GI50 (MOLT-4) [nM]	GI50 (NCI-H23) [nM]	GI50 (NCI-H460) [nM]	GI50 (OVCAR-3) [nM]	other results
C/C(=C\c1cc(C(F)(F)F)n(-c2ccc(N)cc2)n1)[C@@H]1C[C@@H]2O[C@]2(C)CCC[C@H](C)[C@H](O)[C@@H](C)C(=O)C(C)(C)[C@@H](O)CC(=O)O1 [Compound 9]	66	48.8	47.6	14.7	5.31	22	7.88	36.4	5.29	15.7	5.25	25	13.7	3.65	2.08	23.1	48.1	88.5	6.45	15.8	GI50 (HOP-92; read-out: GI50): 183 nM; GI50 (PC-3): 32.2 nM; GI50 (RPMI-8226): 11.1 nM; GI50 (RXF 393): 40.7 nM; GI50 (SF-539): 24.8 nM; GI50 (SK-MEL-5): 22.1 nM; GI50 (SW-620): 5.4 nM; GI50 (U251): 38.1 nM; EC50 (tubulin): > 40 µM; GI50 (MCF-7): 900 nM; GI50 (OVCAR-8): 300 nM
C/C(=C\c1ccn(-c2ccccc2N)n1)[C@@H]1C[C@@H]2O[C@]2(C)CCC[C@H](C)[C@H](O)[C@@H](C)C(=O)C(C)(C)[C@@H](O)CC(=O)O1 [Compound 10]	18.8	34.5	22.6	20.4	18.3	32.5	17.2	31.6	18.8	24.4	20.6	31.3	18	17.7	9.56	23.4	27.6	35.8	20.3	18.8	GI50 (HOP-92; read-out: GI50): 80.7 nM; GI50 (PC-3): 34.3 nM; GI50 (RPMI-8226): 17.8 nM; GI50 (RXF 393): 39.6 nM; GI50 (SF-539): 15.8 nM; GI50 (SK-MEL-5): 21.9 nM; GI50 (SNB-75): 16.4 nM; GI50 (SR): 27.4 nM; GI50 (SW-620): 24.5 nM; GI50 (U251): 30.8 nM; EC50 (tubulin): 8 ± 1 µM; GI50 (MCF-7): 5.5 nM; GI50 (OVCAR-8): 23 ± 10 nM
C/C(=C\c1ccn(-c2ccc(N)c(C(F)(F)F)c2)n1)[C@@H]1C[C@@H]2O[C@]2(C)CCC[C@H](C)[C@H](O)[C@@H](C)C(=O)C(C)(C)[C@@H](O)CC(=O)O1 [Compound 11]	11.3	13.4	12.3	8.48	4.82	11	7.36	7.1	5.74	10.2	9.16	10.3	4.88	< 3.25	< 3.25	10.6	14.2	18.3	8.73	10.2	GI50 (HOP-92; read-out: GI50): 16.1 nM; GI50 (PC-3): 12.7 nM; GI50 (RPMI-8226): 9.98 nM; GI50 (RXF 393): 14 nM; GI50 (SF-539): 9.55 nM; GI50 (SK-MEL-5): 10.1 nM; GI50 (SNB-75): 5.75 nM; GI50 (SR): 7.29 nM; GI50 (SW-620): 6.23 nM; GI50 (U251): 14.6 nM; EC50 (tubulin): 2.5 ± 0.5 µM; GI50 (MCF-7): 3 ± 1 nM; GI50 (OVCAR-8): 2.5 ± 0.4 nM
C/C(=C\c1ccn(-c2ccc(N)c(F)c2)n1)[C@@H]1C[C@@H]2O[C@]2(C)CCC[C@H](C)[C@H](O)[C@@H](C)C(=O)C(C)(C)[C@@H](O)CC(=O)O1 [Compound 12]	< 5	6.05	6.09	< 5	< 5	< 5	< 5	5.51	< 5	< 5	< 5	< 5	< 5	< 5	< 5	7.22	< 5	5.72	< 5	< 5	GI50 (HOP-92; read-out: GI50): < 5 nM; GI50 (PC-3): 9.75 nM; GI50 (RPMI-8226): < 5 nM; GI50 (RXF 393): 9.39 nM; GI50 (SF-539): 9.41 nM; GI50 (SK-MEL-5): < 5 nM; GI50 (SNB-75): < 5 nM; GI50 (SR): < 5 nM; GI50 (SW-620): < 5 nM; GI50 (U251): < 5 nM; EC50 (tubulin): 7.8 ± 1 µM; GI50 (MCF-7): 2.5 nM; GI50 (OVCAR-8): 1.8 ± 0.4 nM
C/C(=C\c1ccn(-c2ccc(N)cc2F)n1)[C@@H]1C[C@@H]2O[C@]2(C)CCC[C@H](C)[C@H](O)[C@@H](C)C(=O)C(C)(C)[C@@H](O)CC(=O)O1 [Compound 14]	80.2	37.6	13.6	18.2	17.1	22.6	14.1	37.2	18.4	20.7	17.7	23.1	18.7	14	8.35	20.9	28.3	24.2	20.8	17.6	GI50 (HOP-92; dash defined by footnote e, read-out: GI50 (symbol)): > 100 nM; GI50 (PC-3): 25.8 nM; GI50 (RPMI-8226): 19.6 nM; GI50 (RXF 393): 30.6 nM; GI50 (SF-539): 26.2 nM; GI50 (SK-MEL-5): 18 nM; GI50 (SNB-75): 11.7 nM; GI50 (SR): 29.2 nM; GI50 (SW-620): 23.6 nM; GI50 (U251): 36.2 nM; EC50 (tubulin): 19 ± 1 µM; GI50 (MCF-7): 14 ± 2 nM; GI50 (OVCAR-8): 38 ± 10 nM
